The values below are quoted from earlier work in patent US20230149278A1, “METHOD FOR DYEING KERATIN MATERIAL, COMPRISING THE USE OF AN ORGANOSILICON COMPOUND, A POLYSACCHARIDE, A COLORING COMPOUND AND A POST-TREATMENT AGENT” (Henkel AG & Co. KGaA, priority 2020, published 2023).

For one series the following is noted: water at 25° C.
On to `O=C(O)C1=NN(c2ccc(S(=O)(=O)O)cc2)C(=O)C1N=Nc1ccc(S(=O)(=O)O)cc1` (stereo not drawn) [Acid Yellow 23, 4,5-dihydro-5-oxo-1-(4-sulfophenyl)-4-((4-sulfophenyl)azo)-1H-pyrazole-3-carboxylic acid], for which the “solubility in water (in words)” value is “readily soluble”.

Staying with this series, now noted: water, 25° C.
`CCN(Cc1cccc(S(=O)(=O)[O-])c1)c1ccc(C(=C2C=CC(=[N+](CC)Cc3cccc(S(=O)(=O)[O-])c3)C=C2)c2ccccc2S(=O)(=O)[O-])cc1.[Na+].[Na+]` [Acid Blue 9]: the solubility in water entry is listed as “more than 20 wt. %”. Take `O=S(=O)([O-])c1ccc(N=Nc2c(O)ccc3ccccc23)cc1.[Na+]` [Acid Orange 7, sodium salt of 4-[(2-hydroxy-1-naphthyl)azo]benzene sulfonate]: the solubility in water entry was “more than 7 g/L”. Take `Nc1cc(S(=O)(=O)[O-])cc2cc(S(=O)(=O)[O-])c(N=Nc3ccccc3)c(O)c12.[Na+].[Na+]` [Acid Red 33, disodium salt of 5-amino-4-hydroxy-3-(phenylazo)-naphthalene-2,7-disulphonate]: the solubility in water was 2,5 g/L.

Take `O=C([O-])c1c(Cl)c(Cl)c(Cl)c(Cl)c1-c1c2c(Br)cc(=O)c(Br)c-2oc2c(Br)c(O)cc(Br)c12.O=C([O-])c1c(Cl)c(Cl)c(Cl)c(Cl)c1-c1c2c(Br)cc(=O)c(Br)c-2oc2c(Br)c(O)cc(Br)c12.[Na+].[Na+]` [Acid Red 92, disodium salt of 3,4,5,6-tetrachloro-2-(1,4,5,8-tetrabromo-6-hydroxy-3-oxoxanthen-9-yl)benzoic acid]: the solubility in water entry was “greater than 10 g/L”. “mixture of the sodium salts of mono- and disulfonic acids of 2-(2-quinolyl)-1H-indene-1,3(2H)-dione [Acid Yellow 3]”: the solubility in water is reported as 20 g/L.
